Data as given in patent US10428064B2, “Fused-tricyclic inhibitors of KRAS and methods of use thereof” (Araxes Pharma LLC, priority 2015, dated 2019).

Target: T1, KRAS G12C 1-169, his-tagged protein, GDP-loaded (Homo sapiens, UniProt P01116, G12C)
T1 construct: KRAS G12C 1-169, his-tagged protein, GDP-loaded
Experiment: Biochemical assay: covalent modification of KRAS G12C protein measured by mass spectrometry (RapidFire/TOF or Q-Exactive)
Conditions: covalent binding to KRAS G12C
Method: Test compounds are prepared as 10 mM stock solutions in DMSO (Fisher cat # BP-231-100). KRAS G12C 1-169, his-tagged protein, GDP-loaded is diluted to […] in buffer (20 mM Hepes, 150 mM NaCl, 1 mM MgCl2). Compounds are tested for activity as follows:
Compounds are diluted to 50× final test concentration in DMSO in 96-well storage plates. Compound stock solutions are vortexed before use and observed carefully for any sign of precipitation. […] The plate is then resealed with aluminum seal and stored on dry ice until analyzed as described below.
The above described assays are analyzed by mass spectrometry according to one of the following two procedures: […]
After another 30 minute equilibration time, a blank batch (i.e., buffer) is run to ensure equipment is operating properly. […] The method is then run and masses of each individual well recorded. […]
The masses and peak intensities of KRAS G12C protein species are measured using a Dionex RSLCnano system (Thermo Scientific) connected to a Q Exactive Plus mass spectrometer (Thermo Scientific). […]
The mass spectrometer is operated in profile mode at a resolution of 17500, 5 microscans, using 50 msec max injection time and an AGC target of 1e6, and a full mass range from 800-1850 m/z is recorded. […]

T1 sequence (P01116 1-169 isoform P01116-2 G12C): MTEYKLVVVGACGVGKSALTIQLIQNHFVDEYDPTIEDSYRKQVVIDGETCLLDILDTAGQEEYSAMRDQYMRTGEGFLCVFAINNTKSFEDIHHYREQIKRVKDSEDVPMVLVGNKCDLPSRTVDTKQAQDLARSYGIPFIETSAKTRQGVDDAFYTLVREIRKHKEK

| Structure (SMILES) | Binding % |
| --- | --- |
| C=CC(=O)N1CCN(c2c3c(nc4c(F)c(-c5c(O)cccc5F)c(Cl)cc24)CCN(C)C3=O)CC1 [Compound 19, 10-(4-acryloylpiperazin-1-yl)-8-chloro-6-fluoro-7-(2-fluoro-6-hydroxyphenyl)-2-methyl-3,4-dihydrobenzo[b] [1,6]naphthyridin-1(2H)-one] | + (+ indicates binding activity up to 50%) |
| C=CC(=O)N1CCN(c2c3c(nc4c(F)c(-c5c(O)cccc5F)c(Cl)cc24)NC(=O)NC3)CC1 [Compound 1, 5-(4-acryloylpiperazin-1-yl)-7-chloro-9-fluoro-8-(2-fluoro-6-hydroxyphenyl)-3,4-dihydropyrimido [4,5-b]quinolin-2(1H)-one] | ++ (++ indicates binding activity greater than 50%) |
